How the values were obtained:
[1] = test system: F270L mutant topoisomerase I; conditions: cited from earlier work
CT DNA = molecular target: CT DNA; set-up: method as in PMID 17922678; conditions: interaction with DNA; read-out: dissociation constant (KD); cited from earlier work
LdTOP1LS = assay: Plasmid cleavage assay; format: biochemical, Leishmania donovani; conditions: 20 µM, pHOT1 DNA
Method: Cleavage assay was carried out as described previously. Briefly, 50 fmol of pHOT1 supercoiled DNA (containing topoisomerase I cleavage site) and 100 fmol of reconstituted LdTOP1LS were incubated in standard reaction mixture (50 µl) containing 50 mM Tris/HCl (pH 7.5), 100 mM KCl, 10 mM MgCl2, 0.5 mM DTT, 0.5 mM EDTA and 30 µg/ml BSA in the presence of various concentrations of drugs at 37°C for 30 min. The reactions were terminated by adding 1% SDS and 150 µg/ml proteinase K and further incubated for 1 h at 37°C. DNA samples were electrophoresed in a 1% agarose gel containing 0.5 µg/ml EtBr.
The effect of DIM and its derivatives on L. donovani topoisomerase I was examined by plasmid DNA cleavage assay as described. The topoisomerase reaction has three general mechanistic steps: (i) binding of enzyme to the substrate DNA, (ii) single strand breakage and subsequent strand rotation through the break leading to change in linking number, and (iii) strand religation. The second step of reaction is the introduction of a single-stranded nick in the phosphodiester bond of the DNA, through which an intact strand is allowed to pass. […]

Row | SMILES | sensitivity of F270L topoisomerase I mutant [1] | Kd (CT DNA) [µM] | conversion of closed circular DNA (form I) to nicked circular DNA (form II) (LdTOP1LS)
1 | c1ccc2c(Cc3c[nH]c4ccccc34)c[nH]c2c1 [DIM, 3, 3′-diindolyl methane, reference compound] | insensitive | 22 | 
2 | COc1ccc2[nH]cc(Cc3c[nH]c4ccc(OC)cc34)c2c1 [DMODIM, 5,5′-dimethoxy 3,3′-diindolyl methane] |  |  | didn't cause conversion of all the form I DNA to form II

Source: publication PMC3236199, “Development of Derivatives of 3, 3′-Diindolylmethane as Potent Leishmania donovani Bi-Subunit Topoisomerase IB Poisons” (PLoS ONE, 2011)
